Experiments:
SJSA = experiment: Growth suppression, cancer cell line panel (resazurin); assay type: cell-based; conditions: SJSA osteosarcoma, 48 hours
Description: (§1) Breast, colon, ovarian, cervical, liver and lung carcinoma cell lines were grown in DMEM supplemented with 10% FBS, and antibiotics were cultured at 37 °C and 5% CO2. Osteosarcoma, melanoma, lymphoma, neuroblastoma and leukemia cell lines were cultured in RPMI 1640 with 10% FBS and antibiotics. An oxygen concentration of 0.3% was obtained by flushing a sealed box containing the cells with premixed gas composed of 95% nitrogen (N2) and 5% CO2 (AGA AB, Sweden). To obtain an oxygen concentration of 0.05%, the cells were flushed with the premixed gas continuously throughout the experiment.
(§2) Cells were grown in 96-well plates at a density of 3000 cells per well with or without doxycycline and treated with compounds. After 48 hours of incubation the proliferative cell reagent resazurin (Thermo Fisher Scientific) was added to the cells. The degree of resazurin reduction, which reflects cell viability, was measured by microplate reader by monitoring the absorbance at 570 nm and 600 nm, according to the manufacturer.
(§3) Growth suppression by the soluble compound 1d*HCl in a panel of 27 cancer cell lines. The panel of cancer cell lines, including carcinomas of breast (MDA-MB231, SKBR3, T47D, MCF7; BT549, BT20, MDA-MB468), colon, (SW480, RKO, HT29, HCT116) ovarian (OVCAR3, OVCAR4, OVCAR8), cervical (SW756, C33A), liver (HEPG2) and lung (H23), osteosarcoma (SJSA and U2OS), melanoma (ME180), lymphoma (Raji, HDLM2), neuroblastoma (SKNAS, IMR32) and leukemia (NB4, K562) were treated with increasing concentrations of 1d*HCl: 0.4; 0.8; 1.6; 3.2; 6.4; 12.8; 25.6 µM in 96-well plates. After 48 hours of incubation the proliferative cell reagent resazurin was added to the cells. The degree of resazurin reduction, which reflects cell viability, was measured by microplate reader by monitoring the absorbance at 570 nm and 600 nm, according to the manufacturer, and the IC50 and AUC (area under curve) were determined (Table 2). As could be seen in Table 2, 1d*HCl suppressed the growth of cancer cell lines of a different origin, including carcinomas, osteosarcomas, melanoma, lymphoma, leukemia and neuroblastoma. These findings open up a possibility of the application of the present invention in anti-cancer therapy in a broad range of tumor types. Table 2: a) Breast cancer

Raji = experiment: as above; assay type: cell-based; conditions: Raji lymphoma, 48 hours
Description: as §1, §2, §3

HDLM2 = experiment: as above; assay type: cell-based; conditions: HDLM2 lymphoma, 48 hours
Description: as §1, §2, §3

SKBR3 = experiment: as above; assay type: cell-based; conditions: SKBR3 breast, 48 hours
Description: as §1, §2, §3

OVCAR8 = experiment: as above; assay type: cell-based; conditions: OVCAR8 ovarian, 48 hours
Description: as §1, §2, §3

MDA- MB231 = experiment: as above; assay type: cell-based; conditions: MDA-MB231 breast, 48 hours
Description: as §1, §2, §3

OVCAR3 = experiment: as above; assay type: cell-based; conditions: OVCAR3 ovarian, 48 hours
Description: as §1, §2, §3

T47D = experiment: as above; assay type: cell-based; conditions: T47D breast, 48 hours
Description: as §1, §2, §3

OVCAR4 = experiment: as above; assay type: cell-based; conditions: OVCAR4 ovarian, 48 hours
Description: as §1, §2, §3

RKO = experiment: as above; assay type: cell-based; conditions: RKO colon, 48 hours
Description: as §1, §2, §3

HCT116 = experiment: as above; assay type: cell-based; conditions: HCT116 colon, 48 hours
Description: as §1, §2, §3

SW480 = experiment: as above; assay type: cell-based; conditions: SW480 colon, 48 hours
Description: as §1, §2, §3

ME180 = experiment: as above; assay type: cell-based; conditions: ME180 (table section Cervical), 48 hours
Description: as §1, §2, §3

B16 melanoma = B16 melanoma mouse model; assay type: in vivo, C57BL/6 mice; conditions: 10mg/kg i.p. every other day for 9 days, day 8 and day 9, compared to vehicle-treated mice
Description: Animal experiments were approved by the regional ethics committee for animal research (N391/11 and N26/11), appointed and under the control of the Swedish Board of Agriculture and the Swedish Court. The animal experiments were in accordance with national regulations (SFS 1988:534, SFS 1988:539 and SFS 1988:541).
For the B16 melanoma mouse model, 6-weeks-old female C57BL/6 mice were injected subcutaneously with 1x10^6 B16 cells. When the tumors reached 80-120 mm^3, 10 mg/kg of 1d*HCl were administered intraperitoneally every other day for 9 days (days 1, 3, 5, 7, 9). Tumor volume was measured by caliper three times per week, and the volume was calculated based on the formula (in ml): L/10*W/10*W/10*0.44 (L=length, W=width of tumor). Mice were sacrificed when tumors reached 2 cm^3 or upon bleeding.
We tested the anti-tumor activity of 1d*HCl using allogenic model of B16 mice. We inoculated mice with B16 melanoma cells. When the tumors reached 100 mm^3, we treated them with i.p. injection of 1d*HCl, 10mg/kg every other day for 9 days. […] The differences in tumor volume between untreated control mice and animals treated with 1d*HCl are all statistically significant. Thus, 1d*HCl has in vivo anti-tumor activity in this animal tumor model.

Cl.N#Cc1c(-c2cccnc2)[n+]([O-])c2cc(F)c(N3CCOCC3)cc2[n+]1[O-] [1d*HCl, 6-Fluoro-7-(morpholin-4-yl)-3-(pyridin-3-yl)quinoxaline-2-carbonitrile-1,4-dioxide hydrochloride]
IC50 (SJSA; resazurin, read-out: ICso): 4080 nM | AUC (SJSA; area under curve, 0.4-25.6 µM): 4,96 | IC50 (Raji; Homo sapiens, resazurin): 1220 nM | AUC (Raji; area under curve, 0.4-25.6 µM): 2,93 | AUC (HDLM2; area under curve, 0.4-25.6 µM): 4,68 | IC50 (HDLM2; Homo sapiens, HDLM-2, resazurin): 1270 nM | IC50 (SKBR3; Homo sapiens, SK-BR-3, resazurin): 2130 nM | AUC (SKBR3; area under curve, 0.4-25.6 µM): 3,06 | IC50 (OVCAR8; Homo sapiens, OVCAR-8, resazurin): 2360 nM | AUC (OVCAR8; area under curve, 0.4-25.6 µM): 2,98 | IC50 (MDA- MB231; Homo sapiens, MDA-MB-231, resazurin): 780 nM | AUC (MDA- MB231; area under curve, 0.4-25.6 µM): 1,21 | IC50 (OVCAR3; Homo sapiens, OVCAR-3, resazurin): 2640 nM | AUC (OVCAR3; area under curve, 0.4-25.6 µM): 4,813 | IC50 (T47D; Homo sapiens, resazurin): 2740 nM | AUC (T47D; area under curve, 0.4-25.6 µM): 3,93 | IC50 (OVCAR4; Homo sapiens, OVCAR-4, resazurin): 1570 nM | AUC (OVCAR4; area under curve, 0.4-25.6 µM): 3,7 | IC50 (RKO; Homo sapiens, resazurin): 538 nM | AUC (RKO; area under curve, 0.4-25.6 µM): 0,942 | AUC (HCT116; area under curve, 0.4-25.6 µM): 1,37 | IC50 (HCT116; Homo sapiens, HCT-116, resazurin): 860 nM | IC50 (SW480; Homo sapiens, resazurin): 3720 nM | AUC (SW480; area under curve, 0.4-25.6 µM): 4,78 | IC50 (ME180; Homo sapiens, ME-180, resazurin): 2230 nM | AUC (ME180; area under curve, 0.4-25.6 µM): 2,72 | tumor volume (B16 melanoma): lower volume of tumors

Source: patent EP4201929A1, “QUINOXALINE THIOREDOXIN REDUCTASE INHIBITORS” (geneXplain GmbH, priority 2021, dated 2023)
